Results: ChEMBL document CHEMBL5346873, “Strategic modification of low-activity natural antimicrobial peptides confers antibacterial potential in vitro and in vivo” (Eur J Med Chem, 2023)

Assays:
Staphylococcus aureus = test: Bactericidal activity against Staphylococcus aureus incubated for overnight; format: functional
[1] = Hemolytic activity in human RBC at 100 ug/ml incubated for 1 hr; format: toxicity, cell-based, Erythrocyte; conditions: human red blood cells (erythrocytes), at 100 µg/mL, read-out: Activity
Acinetobacter baumannii = test: Bactericidal activity against Acinetobacter baumannii incubated for overnight; format: functional

Row | Substance | MBC (Staphylococcus aureus) [mg/L] | hemolysis at 1 h, 100 ug/ml [1] [%] | MBC (Acinetobacter baumannii) [mg/L]
1 | H-FDWDSVLKGVEGFVRGYF-OH | > 100 | 15.2 | > 100
2 | H-FKDKSVLKIVDIFVDIYF-OH | > 100 | 2.7 | > 100
3 | H-FKDKSVLKIVKIFVDIYF-OH | > 100 | 16.3 | > 100
4 | H-FKDKSVLKIVKIFVKIYF-OH | > 100 | 2.2 | > 100
5 | H-FKWKSVLKGVDGFVDGYF-OH | > 100 | 101 | > 100
6 | H-FKWKSVLKGVKGFVDGYF-OH | > 100 | 99.8 | > 100
